Measurements reported in US20040067959A1, “Morphinoid derivatives as delta-opioid agonists and antagonists” (priority 2000, published 2004).

Key:
[1] = target: T1, human mu opioid receptors (Homo sapiens, UniProt P35372); experiment: radioligand binding assay, cloned human mu opioid receptor, [3H]-DAMGO; conditions: ratio of Ki at human mu ([3H]-DAMGO 0.5 nM) to Ki at human delta
T1 construct: expressed in transfected cells; membranes
Experimental: (§1) The activity of the compounds of the present invention as selective delta ligands is determined in radioligand binding assays using cloned human delta, mu and kappa opioid receptors stably expressed in cell lines as described below.
(§2) CHO cells were subjected to stable transfection with cDNA encoding the human delta and mu opioid receptors. Clones were grown in suspension culture in serum free media. Selection was performed by growth in the absence of nucleotides.
(§3) Membranes were prepared as previously described (J. Med. Chem. 1997, 40 3192). The binding of the preferential delta ligand [^3H]-[D-Ala^2,D-Leu^5]-enkephalin (DADLE) was evaluated at its KD concentration (0.7 nM). The binding of the mu ligand [^3H]-DAMGO (Eur. J. Pharmacol., 1989, 166, 213) and of the kappa ligand [^3H]-U69593 (Excerpta Medica, 1990, 211) were carried out at 0.5 nM. Non specific binding was determined in the presence of 10 uM of naloxone. Binding data were expressed as percentage of inhibition and fitted the following equation: f(x)=100·X/(IC50+X) where X is the cold drug concentration value. The IC50 values obtained were used to calculate the inhibitory constants (Ki) according to the Cheng and Prusoff relation (Biochem. Pharmacol., 1973, 22, 3099).

[2] = target: T2, human delta opioid receptors (Homo sapiens, UniProt P41143); experiment: radioligand binding assay, cloned human delta opioid receptor, [3H]-DADLE
T2 construct: expressed in transfected cells; membranes
T2 sequence (P41143 whole entry): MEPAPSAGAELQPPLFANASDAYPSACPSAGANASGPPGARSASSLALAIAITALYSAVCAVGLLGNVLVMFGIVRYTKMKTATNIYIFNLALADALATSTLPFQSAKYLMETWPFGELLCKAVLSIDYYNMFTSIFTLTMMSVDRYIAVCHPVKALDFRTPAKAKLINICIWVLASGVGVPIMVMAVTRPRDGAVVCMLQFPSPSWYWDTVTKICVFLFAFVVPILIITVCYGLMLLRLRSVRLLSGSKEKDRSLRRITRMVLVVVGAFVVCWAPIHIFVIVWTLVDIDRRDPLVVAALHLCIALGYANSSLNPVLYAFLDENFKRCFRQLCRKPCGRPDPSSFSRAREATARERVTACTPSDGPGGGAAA
Experimental: as §1, §2, §3

T1 sequence (P35372 whole entry): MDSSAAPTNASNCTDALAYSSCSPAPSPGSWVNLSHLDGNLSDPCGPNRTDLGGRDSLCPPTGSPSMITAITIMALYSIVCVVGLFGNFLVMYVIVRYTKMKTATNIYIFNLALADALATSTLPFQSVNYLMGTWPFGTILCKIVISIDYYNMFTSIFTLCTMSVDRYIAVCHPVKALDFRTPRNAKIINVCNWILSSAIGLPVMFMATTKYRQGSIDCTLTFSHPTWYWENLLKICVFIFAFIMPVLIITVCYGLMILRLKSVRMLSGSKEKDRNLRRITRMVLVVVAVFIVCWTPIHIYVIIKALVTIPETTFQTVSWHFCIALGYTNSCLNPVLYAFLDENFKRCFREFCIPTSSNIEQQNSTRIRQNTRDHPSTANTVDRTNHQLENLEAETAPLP

| Compound | Ki mu/Ki delta [1] | Ki [2] |
| --- | --- | --- |
| COc1ccc2c3c1O[C@H]1c4[nH]c(C(=O)N5CCN(c6ccc(C)cc6C)CC5)c(C)c4C[C@H]4[C@@H](C2)N(C)CC[C@]314 [Example 6] | 437 | 1 nM |
| COc1ccc(N2CCN(C(=O)c3[nH]c4c(c3C)C[C@H]3[C@H]5Cc6ccc(OC)c7c6[C@@]3(CCN5C)[C@H]4O7)CC2)c(OC)c1 [Example 23] | 1010 | 0.6 nM |
